Measured values published in PubChem BioAssay (NCI).
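Here, GI50 denotes the concentration required for 50% inhibition of growth. At the TGI there is no net growth.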

Tests used:
Experiment in all cases: DTP human tumour cell line panel, 384-well format
[1] = system: NCI-H226 lung
[2] = system: NCI-H23 lung
[3] = system: NCI-H322M lung
[4] = system: NCI-H460 NSCLC
[5] = system: NCI-H522 lung
[6] = system: NCI/ADR-RES ovarian
[7] = system: OVCAR-3 ovarian
[8] = system: OVCAR-4 ovarian
[9] = system: OVCAR-8 ovarian
[10] = system: PC-3 prostate
[11] = system: RPMI-8226 leukemia
[12] = system: RXF 393 renal
[13] = system: SF-268 CNS
[14] = system: SF-295 CNS
[15] = system: SF-539 CNS
[16] = system: SK-MEL-28 melanoma
[17] = system: SK-MEL-5 melanoma
[18] = system: SK-OV-3 ovarian
[19] = system: SN12C renal
[20] = system: SNB-19 CNS
[21] = system: SNB-75 CNS
[22] = system: SR leukemia
[23] = system: SW-620 colon
[24] = system: T-47D breast
[25] = system: TK-10 renal
[26] = system: U251 glioblastoma
[27] = system: UACC-257 melanoma
[28] = system: UACC-62 melanoma
[29] = system: UO-31 renal

**Q.** Which GI50 [1] does the source give for `COc1cc2ncnc(Nc3cccc(Cl)c3F)c2cc1OC(=O)N1CCN(C)C[C@H]1C` here?
**A.** The GI50 was 11.7 µM.

**Q.** And the TGI [1]?
**A.** The TGI was 33.8 µM.

**Q.** What about the GI50 [2] of the same compound?
**A.** Its GI50 is 16.4 µM.

**Q.** And the TGI [2]?
**A.** Its TGI is 41.7 µM.

**Q.** And the GI50 [3]?
**A.** The GI50 was 0.144 µM.

**Q.** And the TGI [3]?
**A.** Its TGI is 10.8 µM.

**Q.** And the GI50 [4]?
**A.** Its GI50 is 19.9 µM.

**Q.** What about the TGI [4] of the same compound?
**A.** Its TGI is 44.2 µM.

**Q.** What about the GI50 [5] of the same compound?
**A.** Its GI50 is 0.851 µM.

**Q.** What about the TGI [5] of the same compound?
**A.** The TGI was 17.5 µM.

**Q.** What about the GI50 [6] of the same compound?
**A.** The GI50 was 18 µM.

**Q.** What about the TGI [6] of the same compound?
**A.** Its TGI is 64.2 µM.

**Q.** What about the GI50 [7] of the same compound?
**A.** Its GI50 is 4.35 µM.

**Q.** What about the TGI [7] of the same compound?
**A.** Its TGI is 24.3 µM.

**Q.** And the GI50 [8]?
**A.** Its GI50 is 18.5 µM.

**Q.** And the TGI [8]?
**A.** The TGI was 51.5 µM.

**Q.** What about the GI50 [9] of the same compound?
**A.** Its GI50 is 15.3 µM.

**Q.** What about the TGI [9] of the same compound?
**A.** Its TGI is 49.2 µM.

**Q.** And the GI50 [10]?
**A.** Its GI50 is 15.6 µM.

**Q.** What about the TGI [10] of the same compound?
**A.** The TGI was 49.8 µM.

**Q.** What about the GI50 [11] of the same compound?
**A.** Its GI50 is 14.6 µM.

**Q.** What about the TGI [11] of the same compound?
**A.** Its TGI is 30.9 µM.

**Q.** And the GI50 [12]?
**A.** The GI50 was 14.1 µM.

**Q.** And the TGI [12]?
**A.** The TGI was 29.2 µM.

**Q.** And the GI50 [13]?
**A.** The GI50 was 18.8 µM.

**Q.** And the TGI [13]?
**A.** The TGI was 54 µM.

**Q.** What about the GI50 [14] of the same compound?
**A.** Its GI50 is 16.3 µM.

**Q.** And the TGI [14]?
**A.** Its TGI is 31.4 µM.

**Q.** And the GI50 [15]?
**A.** Its GI50 is 16.7 µM.

**Q.** What about the TGI [15] of the same compound?
**A.** Its TGI is 32.5 µM.

**Q.** What about the GI50 [16] of the same compound?
**A.** Its GI50 is 14.6 µM.

**Q.** What about the TGI [16] of the same compound?
**A.** Its TGI is 28 µM.

**Q.** What about the GI50 [17] of the same compound?
**A.** The GI50 was 11.5 µM.

**Q.** What about the TGI [17] of the same compound?
**A.** Its TGI is 24.9 µM.

**Q.** And the GI50 [18]?
**A.** Its GI50 is 3.46 µM.

**Q.** What about the TGI [18] of the same compound?
**A.** The TGI was 22.7 µM.

**Q.** And the GI50 [19]?
**A.** The GI50 was 2.69 µM.

**Q.** What about the TGI [19] of the same compound?
**A.** Its TGI is 27.6 µM.

**Q.** And the GI50 [20]?
**A.** Its GI50 is 27.7 µM.

**Q.** And the TGI [20]?
**A.** Its TGI is over 100 µM.

**Q.** And the GI50 [21]?
**A.** Its GI50 is 17.6 µM.

**Q.** And the TGI [21]?
**A.** Its TGI is 47.1 µM.

**Q.** And the GI50 [22]?
**A.** The GI50 was 10.8 µM.

**Q.** What about the TGI [22] of the same compound?
**A.** The TGI was 23.6 µM.

**Q.** And the GI50 [23]?
**A.** The GI50 was 20.3 µM.

**Q.** And the TGI [23]?
**A.** The TGI was 38.2 µM.

**Q.** What about the GI50 [24] of the same compound?
**A.** Its GI50 is 9.89 µM.

**Q.** And the TGI [24]?
**A.** Its TGI is 40.9 µM.

**Q.** And the GI50 [25]?
**A.** The GI50 was 0.573 µM.

**Q.** What about the TGI [25] of the same compound?
**A.** The TGI was 21.3 µM.

**Q.** What about the GI50 [26] of the same compound?
**A.** Its GI50 is 20.2 µM.

**Q.** And the TGI [26]?
**A.** Its TGI is 48 µM.

**Q.** And the GI50 [27]?
**A.** Its GI50 is 17.5 µM.

**Q.** What about the TGI [27] of the same compound?
**A.** Its TGI is 31.5 µM.

**Q.** And the GI50 [28]?
**A.** The GI50 was 14.2 µM.

**Q.** And the TGI [28]?
**A.** Its TGI is 28.1 µM.

**Q.** What about the GI50 [29] of the same compound?
**A.** The GI50 was 6.94 µM.

**Q.** And the TGI [29]?
**A.** The TGI was 27.9 µM.
